Each structure is given as a SMILES string.

These results are taken from US20150150892A1, “METHODS AND PRODUCTS RELATED TO LUNG CANCER” (Massachusetts Institute of Technology, priority 2012, published 2015).

One assay relates to K lung tumors. Description: CC3 immunohistochemistry in K lung tumors. The assay is classed as in vivo, mouse. The settings on record: KrasLSL-G12D/wt mice, all time points assayed. How it is done:
FIG. 4: Bortezomib induces apoptosis in KP lung tumors. (4A and 4B) H&E and CC3 immunohistochemistry staining (×200) in vehicle control- and bortezomib-treated KP (4A) and K (4B) lung tumors. (4C and 4D) quantification of CC3-positive cells in bortezomib-treated KP (4C) and K (4D) lung tumors at indicated time points. “0 hour” represents vehicle control-treated tumors. Error bars are SD (n>10 for each time point).
Mice were sacrificed by carbon dioxide asphyxiation. Lungs were inflated with 4% formalin (neutral buffered formalin), fixed overnight, and transferred to 70% ethanol. Lung lobes were embedded in paraffin and sectioned at 4 μm and stained with H&E for tumor pathologic study. For staining with anti-CC3 antibodies (#9661; Cell Signaling), lung tumor sections were dewaxed, rehydrated, and subjected to high-temperature antigen retrieval—10 minutes of boiling in a pressure cooker in 0.01 M citrate buffer, pH 6.0. Slides were stained overnight at 4° in 1:100 primary antibody. A goat anti-rabbit horseradish peroxidase-conjugated secondary antibody (Vector Laboratories) was used at 1:200 dilution, incubated for 1 hour at room temperature, followed by diaminobenzidine staining (Vector Laboratories). The number of positive cells per tumor area was quantified using Bioquant software from >10 tumors in ≧3 mice per group (2).

In assay [1] the test system is NF-κB target genes regulating apoptosis and survival. Description: QPCR of NF-κB targets in Bortezomib-resistant KP cell line. Format: cell-based, mouse. The settings on record: 5 nM Bortezomib, 24 hours. How it is done:
A representative resistant cell line was treated with control or 5 nM Bortezomib for 24 hours. Gene expression level was measured by QPCR and normalized to control-treated cells (set to 1). Error bars are s.d. (n=3).
(§1) RNA was purified using TRIzol (Invitrogen), according to the manufacturer's instructions. One microgram of RNA was reverse transcribed using the High-Capacity cDNA Reverse Transcription Kit (Applied Biosystems). Real-time PCR (quantitative PCR) amplification was performed using Taqman probes (Applied Biosystems). Data were normalized to the Gapdh (mouse) or GAPDH (human) levels.

The next assay concerns NF-κB target genes. Briefly: Quantitative PCR of NF-κB target genes in KP cells. The assay is classed as cell-based, mouse. As to the method: FIG. 1. Bortezomib inhibits NF-κB signaling and induces apoptosis in murine lung adenocarcinoma cell lines. (1A) reduction of nuclear p65 level by bortezomib. Two KP (KrasLSL-G12D/wt;p53flox/flox) cell lines (KP1 and KP2) were treated with 5 nM bortezomib (BZ) or vehicle control (ctrl) for 24 hours. Nuclear (N) and cytoplasmic (C) fractions of protein lysates were immunoblotted with the indicated antibodies. NEMO and Parp serve as cytoplasmic and nuclear loading controls, respectively. (1B) quantitative PCR analysis of a subset of NF-κB target genes in 5 nM bortezomib (BZ)-treated KP cells at the indicated time points. Vehicle control is set to 1. (1C) apoptosis in KP and KP^M (KrasLSL-G12D/wt;p53R127H/−) cells induced by bortezomib. Cells were pre-treated with 5 nM bortezomib for 24 hours, and protein lysates were immunoblotted with CC3 and tubulin antibodies. (1D) quantification of cell death in bortezomib-treated cells. Cells were treated with the indicated concentrations of bortezomib for 24 hours, and dead cells were quantified by Trypan blue staining. Error bars are SD (n=3).
FIG. 7: The NF-κB inhibitor Bay-117082 leads to lung tumor regression in vivo. (7A) quantitative PCR analysis of NF-κB target gene expression in KP cells treated with 10 μM Bay-117082 for indicated hours. Error bars are SD (n=3). (7B) Bay-117082 treatment leads to lung tumor regression and delays tumor progression in the orthotopic lung tumor model. A total of 50,000 luciferase-tagged KP cells were transplanted into recipient mice (n=6), and treatment was started at 19 days after transplantation (set at D0). Mice were treated with vehicle control or 10 mg/kg Bay-117082 by i.p. injection, and imaged at the indicated time points. Arrows indicate Bay-117082 injections. (7C) Bay-117082 prolongs survival in the KP model (n=6; P=0.008). “i.p. dosing” indicates treatment with 3 doses per week.
as §1

[2] abbreviates: 5 nM bortezomib, time course, KP cells.

In the case of `CC(C)C[C@H](NC(=O)[C@H](Cc1ccccc1)NC(=O)c1cnccn1)B(O)O` [bortezomib, N-(2-pyrazine) carbonyl-L-phenylalanine-L-leucine boronic acid], the “apoptotic cells in K-only tumors” value in the assay with K lung tumors is “did not detect a substantial number of apoptotic cells”. For the same compound, the “NF-κB target genes regulating apoptosis and survival” value in assay [1] is reported as “robust downregulation”. Also, in the assay with NF-κB target genes (5 nM bortezomib, KP cells), the “I16 mRNA level” value was “increased”. In addition, in the assay on NF-κB target genes (setting [2]), the “expression of inflammation NF-κB targets I16, Tnf, Mmp3” value is reported as “not reduced”; the “expression of proliferation related NF-κB target genes c-Myc and Cyclin D1” value is recorded as “reduced expression”. Moreover, the “expression of NF-κB-regulated antiapoptosis genes Bcl2, Bclx1, Birc2 (cIAP1), Birc5 (Survivin)” value in the assay on NF-κB target genes (5 nM bortezomib, time course, KP cells, real-time PCR) was “consistently downregulated”. In addition, the “Bcl2 and Myc inhibition, bortezomib compared with Bay-117082” value in the assay with NF-κB target genes (KP cells in vitro, FIG. 1B and FIG. 7A) is “more robust”.
